The text below walks through data of ChEMBL document CHEMBL4400570, “Designing of acyl sulphonamide based quinoxalinones as multifunctional aldose reductase inhibitors” (Bioorg Med Chem, 2019).

The structures appear in SMILES notation.

The target of data set [1] is Aldo-keto reductase family 1 member B1 (Rattus norvegicus, UniProt P07943). As to the kind of experiment: Inhibition of Wistar rat lens ALR2 using L-glyceraldehyde as substrate preincubated for 10 mins followed by substrate addition and measured for 4 mins by spectrophotometric method.
Data set [2] addresses Aldo-keto reductase family 1 member A1 (Rattus norvegicus, UniProt P51635). As to the kind of experiment: Inhibition of Wistar rat kidney ALR1 using sodium D-glucuronate as substrate preincubated for 10 mins followed by substrate addition and measured for 4 mins by spectrophotometric method.
The species entered for data set [3] is Rattus norvegicus. As to the kind of experiment: Selectivity index, ratio of IC50 for Wistar rat kidney ALR1 to IC50 for Wistar rat lens ALR2.
Data set [4] in a line: Octanol-buffer partition coefficient, log D of the compound at pH 7.4 measured after 24 hrs by HPLC based shake flask assay. It is filed as physicochemical.
A short description of data set [5]: Antioxidant activity assessed as DPPH radical scavenging activity at 10 uM relative to control. The format is functional. (The DPPH test is a chemical assay of radical scavenging.)
A short description of data set [6]: Antioxidant activity assessed as DPPH radical scavenging activity at 5 uM relative to control. It is filed as functional.
The nature of data set [7]: Antioxidant activity assessed as DPPH radical scavenging activity at 1 uM relative to control. The format is functional.
Data set [8] relates to Brain. As to the kind of experiment: Antioxidant activity in rat brain homogenate assessed as inhibition of FeCl2/ascorbic acid-induced lipid peroxidation by measuring reduction in TBARS level at 100 uM measured after 30 mins by spectrophotometric method relative to control. It is filed as functional, tissue-based.
Data set [9] relates to Brain. As to the kind of experiment: Antioxidant activity in rat brain homogenate assessed as inhibition of FeCl2/ascorbic acid-induced lipid peroxidation by measuring reduction in TBARS level at 50 uM measured after 30 mins by spectrophotometric method relative to control. The format is functional, tissue-based.
For data set [10], the target named is Aldo-keto reductase family 1 member B1 (Rattus norvegicus) (UniProt P07943). As to the kind of experiment: Inhibition of Wistar rat lens ALR2 at 100 uM using L-glyceraldehyde as substrate preincubated for 10 mins followed by substrate addition and measured for 4 mins by spectrophotometric method relative to control.
Data set [11] in a line: Antioxidant activity assessed as DPPH radical scavenging activity at 100 uM relative to control. It is filed as functional.
Data set [12] in a line: Antioxidant activity assessed as DPPH radical scavenging activity at 50 uM relative to control. It is filed as functional.
Data set [13] deals with Aldo-keto reductase family 1 member B1 (Rattus norvegicus) (UniProt P07943). Description: Inhibition of Wistar rat lens ALR2 at 10 uM using L-glyceraldehyde as substrate preincubated for 10 mins followed by substrate addition and measured for 4 mins by spectrophotometric method relative to control.

Aldo-keto reductase family 1 member A1, sequence (P51635 whole entry, looked up): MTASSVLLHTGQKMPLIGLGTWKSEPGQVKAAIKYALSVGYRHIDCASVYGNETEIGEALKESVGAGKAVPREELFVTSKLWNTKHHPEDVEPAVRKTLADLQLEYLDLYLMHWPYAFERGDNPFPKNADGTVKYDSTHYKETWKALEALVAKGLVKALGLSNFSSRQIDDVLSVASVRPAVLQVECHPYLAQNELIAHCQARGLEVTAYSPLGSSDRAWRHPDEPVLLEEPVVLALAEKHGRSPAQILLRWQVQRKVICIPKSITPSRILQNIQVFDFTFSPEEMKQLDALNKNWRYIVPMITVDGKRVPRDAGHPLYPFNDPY

The IC50 is the concentration needed to halve the response being measured. High values mean weaker potency, low ones greater potency. The logD is lipophilicity at a set pH, counting ionised and neutral species. In general, inhibition refers to the drop in the measured response relative to a control, in per cent. Consider `O=C(Cn1c(=O)c(/C=C/c2ccc(O)c(O)c2)nc2ccccc21)NS(=O)(=O)C(F)(F)F`, for which the IC50 is 0.1 µM in data set [1] and 9.16 µM in data set [2]. In data set [3], the Ratio IC50 was 91.6. The compound also returned a logD at 24 h in data set [4] of -1.08. The Activity was determined as 82.1% in data set [5], 51.9% in [6] and 11% in data set [7]. Further, the inhibition is 73.5% in data set [8] and 39% in [9].
`O=C(Cn1c(=O)c(Oc2ccc(Cl)cc2)nc2ccccc21)NS(=O)(=O)C(F)(F)F` displayed a 50% inhibitory concentration (IC50) in data set [1] of 40.6 µM.
With `O=C(Cn1c(=O)c(Oc2ccc(F)cc2)nc2ccccc21)NS(=O)(=O)C(F)(F)F`, the IC50 in data set [1] turned out to be 38.1 µM.
For `CS(=O)(=O)NC(=O)Cn1c(=O)c(-c2ccccc2)nc2ccccc21`, the inhibition in [10] was determined as 35.9%.
On to `COc1ccc(-c2nc3ccccc3n(CC(=O)NS(=O)(=O)C(F)(F)F)c2=O)cc1OC`, for which, in data set [1], the IC50 turned out to be 38.7 µM.
With `COc1cc(/C=C/c2nc3ccccc3n(CC(=O)O)c2=O)ccc1O`, the logD at 24 h in data set [4] was -2.66. The Activity in data set [11] was found to be 94%; in [12], 73.6%; in data set [5] it was 44.4%; in [6] it was 21.1%. For the same compound, in data set [8], the inhibition amounted to 56.1%.
As for `COc1ccc(/C=C/c2nc3ccccc3n(CC(=O)NS(=O)(=O)C(F)(F)F)c2=O)cc1OC`, the results for the IC50 in data set [1] and in [2] were 15.9 µM and 42.5 µM, respectively. For the same compound, in [3], the Ratio IC50 was found to be 2.67.
As to `O=C(Cn1c(=O)c(/C=C/c2ccc(O)cc2)nc2ccccc21)NS(=O)(=O)C(F)(F)F`, the concentration for half-maximal inhibition (IC50) in data set [1] was 0.627 µM; in [2], 27.7 µM. Besides, the Ratio IC50 in data set [3] was found to be 44.2. In data set [4], the logD at 24 h is 1.73. Further, the Activity in data set [11] was 56.2%; in data set [12], 38.9%; in data set [5], 13.2%. For the same compound, the inhibition in data set [8] amounted to 38.6%.
In data set [1], `O=C(Cn1c(=O)c(Oc2ccc(Br)cc2)nc2ccccc21)NS(=O)(=O)C(F)(F)F` came in with an IC50 of 74.7 µM.
`O=C(Cn1c(=O)c(Oc2ccc(O)cc2)nc2ccccc21)NS(=O)(=O)C(F)(F)F`: the IC50 in [1] turned out to be 10.1 µM; in [2], 73.6 µM. Besides, the Ratio IC50 in [3] was found to be 7.26. Besides, the Activity in data set [11] was 8.1%. For the same compound, the inhibition in data set [8] worked out at 12.3%.
In the case of `O=C(Cn1c(=O)c(-c2ccc(O)c(O)c2)nc2ccccc21)NS(=O)(=O)C(F)(F)F`, the 50% inhibitory concentration (IC50) was 4.64 µM in [1] and 57.9 µM in data set [2]. In data set [3], the Ratio IC50 is 12.5. Besides, the Activity in data set [11] came out at 92.3%; in data set [12], 89.6%; in [5], 81.4%; in data set [6], 46%; in data set [7], 6.8%. Further, the inhibition in [8] worked out at 58.7%.
On to `O=C(Cn1c(=O)c(-c2ccc(C(F)(F)F)cc2)nc2ccccc21)NS(=O)(=O)C(F)(F)F`, for which, in [1], the IC50 was determined as 34 µM.
`COc1ccc(Oc2nc3ccccc3n(CC(=O)NS(=O)(=O)C(F)(F)F)c2=O)cc1` returned an IC50 in data set [1] of 55.1 µM.
Turning to `O=C(O)Cn1c(=O)c(/C=C/c2ccc(O)cc2)nc2ccccc21`, the logD at 24 h in data set [4] was -1.63.
Turning to `NC(=O)Cn1c(=O)c(/C=C/c2ccc(F)cc2)nc2ccccc21`, the inhibition in [13] came out at 26.5%.
Regarding `O=C(Cn1c(=O)c(/C=C/c2ccccc2)nc2ccccc21)NS(=O)(=O)C(F)(F)F`, the IC50 in data set [1] stood at 6.38 µM; in data set [2], 29.9 µM. For the same compound, the Ratio IC50 in [3] is 4.68. In addition, the logD at 24 h in data set [4] turned out to be 2.88. Moreover, the Activity in data set [11] amounted to 58.5%; in data set [12] it was 35.1%; in [5], 6.4%. For the same compound, in data set [8], the inhibition is 20.6%.
`O=C(Cn1c(=O)c(Oc2ccccc2)nc2ccccc21)NS(=O)(=O)C(F)(F)F` came in with an IC50 in data set [1] of 54 µM.
`O=C(O)Cn1c(=O)c(/C=C/c2ccc(O)c(O)c2)nc2ccccc21` yielded a logD at 24 h in [4] of -2.59. For the same compound, the Activity in data set [11] worked out at 95.4%; in data set [12], 89.2%; in data set [5] it was 46%; in [6], 21.8%. Also, in data set [8], the inhibition is 59.5%.
As to `CS(=O)(=O)NC(=O)Cn1c(=O)c(/C=C/c2ccccc2)nc2ccccc21`, the IC50 in data set [1] is 35.2 µM.
On to `O=C(Cn1c(=O)c(-c2ccc(F)cc2)nc2ccccc21)NS(=O)(=O)C(F)(F)F`, for which it took 71.9 µM to reach half-maximal inhibition in data set [1] (IC50).
`O=C(Cn1c(=O)c(/C=C/c2ccc(F)cc2)nc2ccccc21)NS(=O)(=O)C(F)(F)F`: the values for the IC50 in [1] and in [2] were 14.3 µM and 29.2 µM, respectively. Further, the Ratio IC50 in [3] stood at 2.05.
`Cc1c(C)c2c(c(C)c1O)CCC(C)(C(=O)O)O2` (stereo not given): the Activity in [11] amounted to 96.5%; in data set [12] it was 94.7%; in data set [5] it was 77.9%; in [6], 39.3%; in data set [7], 8.2%. Further, the inhibition came to 74.1% in data set [8] and 36.6% in data set [9].
Take `COc1cc(/C=C/c2nc3ccccc3n(CC(=O)NS(=O)(=O)C(F)(F)F)c2=O)ccc1O`: the figures for the IC50 in [1] and in [2] were 3.27 µM and 23.9 µM, respectively. In addition, the Ratio IC50 in data set [3] is 7.3. In data set [4], this compound came in with a logD at 24 h of 1.05. Further, the Activity was 89.8% in [11], 81.9% in data set [12], 52.2% in data set [5] and 27.7% in data set [6]. The inhibition in [8] stood at 61.9%.
Regarding `O=C(O)Cn1c(=O)c(/C=C/c2ccccc2)nc2ccccc21`, in data set [4], the logD at 24 h came out at 0.05.
The compound `NC(=O)Cn1c(=O)c(/C=C/c2ccccc2)nc2ccccc21` had an inhibition in [13] of 24.6%.
In turn, `CS(=O)(=O)NC(=O)Cn1c(=O)c(Oc2ccccc2)nc2ccccc21` yielded an inhibition in [10] of 41.7%.
`O=C(Cn1c(=O)c(-c2ccccc2)nc2ccccc21)NS(=O)(=O)C(F)(F)F`: in data set [1], inhibition was half-maximal at 75.2 µM (IC50).
In data set [1], `O=C(Cn1c(=O)c(-c2ccc(O)cc2)nc2ccccc21)NS(=O)(=O)C(F)(F)F` registered an IC50 of 23.6 µM.
